Results reported in PMC6399220, “Engineered XylE as a tool for mechanistic investigation and ligand discovery of the glucose transporters GLUTs” (Cell Discovery, 2019).

Experiments:
Assay type in all cases: binding
[1] = target: T1, XylE-WW (xylose:proton symporter XylE) (Escherichia coli, UniProt P0AGF4, G58W/L315W); test: MST
[2] = target: T2, XylE (WT, xylose:proton symporter) (Escherichia coli, UniProt P0AGF4); test: MST
T2 sequence (P0AGF4 1-491): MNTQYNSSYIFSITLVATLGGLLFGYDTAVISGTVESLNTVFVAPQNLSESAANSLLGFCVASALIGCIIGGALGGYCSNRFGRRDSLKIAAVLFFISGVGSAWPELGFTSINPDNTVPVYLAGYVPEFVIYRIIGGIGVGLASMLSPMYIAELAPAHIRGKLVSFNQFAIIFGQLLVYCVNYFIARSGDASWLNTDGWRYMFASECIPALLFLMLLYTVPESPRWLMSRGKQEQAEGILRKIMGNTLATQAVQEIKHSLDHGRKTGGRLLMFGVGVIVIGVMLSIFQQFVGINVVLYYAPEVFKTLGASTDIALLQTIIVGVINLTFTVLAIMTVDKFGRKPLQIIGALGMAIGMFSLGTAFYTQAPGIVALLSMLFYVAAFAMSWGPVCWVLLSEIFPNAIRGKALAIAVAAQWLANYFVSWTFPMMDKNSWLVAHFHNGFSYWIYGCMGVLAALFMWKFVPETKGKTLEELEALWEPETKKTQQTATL

[3] = target: T2, XylE (WT, xylose:proton symporter); test: ITC (MST almost identical)
[4] = target: T1, XylE-WW (xylose:proton symporter XylE); test: MST and ITC

`OC[C@H]1OC(O)[C@H](O)[C@@H](O)[C@@H]1O` (stereo partly drawn) [D-glucose] was tested, and the Kd [1] was 27.5 ± 0.5 µM and the Kd [2] was 2080 ± 95.7 µM.
`OC1OC[C@@H](O)[C@H](O)[C@H]1O` (stereo partly drawn) [D-xylose] was tested, and the Kd [3] was 843 ± 8 µM and the Kd [4] was 14.4 ± 0.2 µM.
